Data: patent publication US9255090B2, “Heterocyclyl derivatives and their use as prostaglandin D2 receptor modulators” (Actelion Pharmaceuticals Ltd., priority 2012, dated 2016)
Counter-ions that a name gives are not always drawn.

Target: hCRTH2 receptor (Homo sapiens (Human), UniProt Q9Y5Y4)
Test: hCRTH2 receptor membranes radioligand (3H-PGD2) displacement assay
Format: binding
Conditions: 3H-PGD2 radioligand displacement, HEK293-hCRTH2 membranes
Experimental: Biological Assays: Preparation of hCRTH2 Receptor Membranes and Radioligand Displacement Assay:
First, recombinant HEK293-hCRTH2 cells were detached from culture plates into 5 ml buffer A/plate (Buffer A: 5 mM Tris, 1 mM MgCl2-6H2O pH=7.4) using a rubber policeman. Cells were then transferred into centrifugation tubes and centrifuged for 5 min at 400 g. The cell pellet was resuspended in the same buffer and tubes were frozen at −80° C. Cells were thawed and membrane fragments were generated by homogenization using a polytron homogenizer (30 seconds). The membrane fragments were then centrifuged at 3000 g for 20 minutes and resuspended in buffer C (Buffer C: 75 mM Tris, 25 mM MgCl2, 250 mM Saccharose pH 7.4). Aliquots of membrane fragments were stored at −20° C.
Binding assay was performed in a final assay volume of 250 μl. First, 25 μl of test compound, previously diluted in Binding-Buffer (Binding-Buffer: 50 mM Tris-Base, 100 mM NaCl, 1 mM EDTA, 0.1% BSA (protease free), 0.01% NaN3, 10 mM MnCl2, pH 7.0) was placed into each well. After addition of 75 μl Binding-Buffer, 50 μl of the radioligand ^3H-PGD2 (at 2.5 nM (220.000 dpm/well) from ANAWA ART0662) was added to each well. Binding assay was started by addition of 100 μl CRTH2 membrane fragments, reaching a final concentration of 20 μg/well. For non-specific binding, PGD2 was added to the reaction mixture to […] final concentration. This assay mix was incubated for 90 minutes at room temperature and then filtered through a GF/C filter 96-well plate which was pre-soaked for 3 hours in 0.5% polyethyleneimine (PEI). The filter-wells were washed three times with ice cold Binding-Buffer. Then, 40 μl of Microscint-40 (Packard) was added to each well and the retained radioactivity quantified in a Topcount (Packard).

hCRTH2 receptor, sequence (Q9Y5Y4 whole entry): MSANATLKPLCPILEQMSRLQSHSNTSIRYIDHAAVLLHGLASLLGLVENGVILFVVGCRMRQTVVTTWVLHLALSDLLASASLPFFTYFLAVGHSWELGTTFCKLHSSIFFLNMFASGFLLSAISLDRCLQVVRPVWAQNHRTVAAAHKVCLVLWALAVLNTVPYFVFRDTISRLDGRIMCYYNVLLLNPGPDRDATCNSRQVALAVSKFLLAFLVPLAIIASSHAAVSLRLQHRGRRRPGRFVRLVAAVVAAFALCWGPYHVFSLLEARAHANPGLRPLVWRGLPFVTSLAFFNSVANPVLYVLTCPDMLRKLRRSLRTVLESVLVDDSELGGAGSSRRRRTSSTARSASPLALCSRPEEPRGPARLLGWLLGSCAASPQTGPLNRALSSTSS

IC50 | Structure (SMILES)
62.6 nM | COc1ccc(C(C)C(=O)O)cc1-c1ccc(F)c2c1CN(C(=O)OCc1ccccc1F)CC2 (racemic) [Example 140, (±)-8-[5-(1-Carboxy-ethyl)-2-methoxy-phenyl]-5-fluoro-3,4-dihydro-1H-isoquinoline-2-carboxylic acid 2-fluoro-benzyl ester]
21.2 nM | COc1ccc(C(C)C(=O)O)cc1-c1ccc(F)c2c1CN(C(=O)OCc1ccccc1)CC2 (racemic) [Example 171, (±)-8-[5-(1-Carboxy-ethyl)-2-methoxy-phenyl]-5-fluoro-3,4-dihydro-1H-isoquinoline-2-carboxylic acid benzyl ester]
9.1 nM | CCOc1ccc(CC(=O)O)cc1-c1ccc(F)c2c1CN(C(=O)CC1CCc3ccccc31)CC2 (racemic) [Example 219]
0.6 nM | CCOc1cc(CC(=O)O)ccc1-c1ccc(F)c2c1CN(C(=O)CC1COCc3ccccc31)CC2 (racemic) [Example 232]
1.1 nM | CCOc1cc(CC(=O)O)ccc1-c1ccc(F)c2c1CN(C(=O)CC1CCc3ccccc31)CC2 (racemic) [Example 233]
28.4 nM | COc1ccc(CC(=O)O)cc1-c1ccc(F)c2c1CN(C(=O)CC1(C)CCCc3ccccc31)CC2 (racemic) [Example 239]
8.3 nM | COc1ccc(CC(=O)O)cc1-c1ccc(F)c2c1CN(C(=O)C1CCc3cccc(OC)c3C1)CC2 (racemic) [Example 241]
2.7 nM | COc1ccc(CC(=O)O)cc1-c1ccc(F)c2c1CN(C(=O)CC1COc3ccccc3C1)CC2 (racemic) [Example 242]
158 nM | COc1ccc(CC(=O)O)cc1-c1ccc(F)c2c1CN(C(=O)CC1CCOc3ccc(F)cc31)CC2 (racemic) [Example 244]
399 nM | COc1ccc(CC(=O)O)cc1-c1ccc(F)c2c1CN(C(=O)CC(C)C1CC1)CC2 (racemic) [Example 245]
22.3 nM | COc1ccc(CC(=O)O)cc1-c1ccc(F)c2c1CN(C(=O)CC1CCOc3c(F)cccc31)CC2 (racemic) [Example 246]
484 nM | COc1ccc(CC(=O)O)cc1-c1ccc(F)c2c1CN(C(=O)CC1CCCc3ccncc31)CC2 (racemic) [Example 247, hydrochloride]
49.8 nM | COc1ccc(CC(=O)O)cc1-c1ccc(F)c2c1CN(C(=O)CC(C)(O)c1ccccc1)CC2 (racemic) [Example 256]
587 nM | COc1ccc(CC(=O)O)cc1-c1ccc(F)c2c1CN(C(=O)CC1c3ccccc3CCN1C)CC2 (racemic) [Example 259]
253 nM | COc1ccc(CC(=O)O)cc1-c1ccc(F)c2c1CN(C(=O)CC(c1ccccc1)C(C)C)CC2 (racemic) [Example 264]
32.7 nM | COc1ccc(CC(=O)O)cc1-c1ccc(F)c2c1CN(C(=O)CC(C)c1cccnc1)CC2 (racemic) [Example 266, (±)-{3-[5-Fluoro-2-(3-pyridin-3-yl-butyryl)-1,2,3,4-tetrahydro-isoquinolin-8-yl]-4-methoxy-phenyl}-acetic acid formiate]
86.1 nM | COc1ccc(CC(=O)O)cc1-c1ccc(F)c2c1CN(C(=O)CC(C)c1ccncc1)CC2 (racemic) [Example 267, (±)-{3-[5-Fluoro-2-(3-pyridin-4-yl-butyryl)-1,2,3,4-tetrahydro-isoquinolin-8-yl]-4-methoxy-phenyl}-acetic acid formiate]
63.6 nM | CCC(CC(=O)N1CCc2c(F)ccc(-c3cc(CC(=O)O)ccc3OC)c2C1)c1ccccc1 (racemic) [Example 268]
25.3 nM | COc1ccc(CC(=O)O)cc1-c1ccc(F)c2c1CN(C(=O)CC1COc3ccccc31)CC2 (racemic) [Example 270]
262 nM | COc1ccc(CC(=O)O)cc1-c1ccc(F)c2c1CN(C(=O)C1CCOc3ccccc31)CC2 (racemic) [Example 272]
683 nM | COc1ccc(CC(=O)O)cc1-c1ccc(F)c2c1CN(C(=O)C1OCCc3ccccc31)CC2 (racemic) [Example 273]
58.2 nM | COc1ccc(CC(=O)O)cc1-c1ccc(F)c2c1CN(C(=O)C1Cc3ccccc3CO1)CC2 (racemic) [Example 274]
